Assay results published in patent publication US20260083865A1, “PROSTATE SPECIFIC MEMBRANE ANTIGEN (PSMA) LIGANDS AND USE THEREOF” (priority 2022, published 2026).
Like-named read-outs stand apart in the source and are kept apart here. Each block holds one molecule with its values, some of them ahead of it. Numbered stars: 1 amine (or outer) side, 2 acyl side, 3 side chain; on linkers, the order of the positions; unused ones are H or OH. Bridge positions count the residues as written; N and C are the ends. Square brackets hold non-standard residues; d marks the D form. Side chains are listed from the residue outwards. Peptide text beside a SMILES is read from it. * marks the point of attachment. TtdsdLys(DOTA)NH2 = NC(=O)[C@@H](CCCCNC(=O)CN1CCN(CC(=O)O)CCN(CC(=O)O)CCN(CC(=O)O)CC1)NC(=O)CCC(=O)NCCCOCCOCCOCCCN*; DOTA = O=C(O)CN1CCN(CC(=O)O)CCN(CC(=O)*)CCN(CC(=O)O)CC1; Phe(3-Cl) = N[C@@H](Cc1cccc(Cl)c1)C(=O)O; X1 = O=C(CC1CCN([*:1])CC1)[*:2]; Cit = NC(=O)NCCC[C@H](N)C(=O)O; Tle = CC(C)(C)[C@H](N)C(=O)O; Nle = CCCC[C@H](N)C(=O)O; Hexanoyl = CCCCCC(=O)*; AEEA = NCCOCCOCC(=O)O; Aib = CC(C)(N)C(=O)O

Key:
[1] = biological target: T1, Fc-fusion protein of human PSMA (hPSMA-Fc) (Homo sapiens, UniProt Q04609); experiment: Surface plasmon resonance assay (Biacore T200, single cycle kinetic); assay type: binding; conditions: hPSMA-Fc, 25° C., read-out: pKD CAT (converted)
T1 construct: purchased Acro Biosystems PSA-H5264
Summary of the method: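 hPSMA-Fc was captured (~1000 RU) on an Fc-binding-peptide CM5 chip, and compounds were run in single cycle kinetic mode at 25° C in HBST with 0.1% DMSO. Double-blank-corrected sensorgrams were fitted to a 1:1 Langmuir model to give KD, reported as pKD.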

[2] = biological target: T2, PSMA-expressing C4-2 cells (Homo sapiens, UniProt Q04609); experiment: FACS binding assay (competition with 50 nM PSM-0183); conditions: read-out: pIC50 [C4-2] CAT (converted)
T2 construct: PSMA-expressing C4-2 cells (ATCC, Cat. No. CRL-3314) were cultured in RPMI-1640; host or cells: C4-2 cells
Summary of the method: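 C4-2 cells were incubated 1 h at 4 °C with 50 nM AF488-labelled peptide PSM-0183 plus increasing test compound concentrations, then washed twice in ice-cold buffer. Median fluorescence in the AF488 channel was read by flow cytometry. IC50/pIC50 was derived by 4PL fitting of MFI versus concentration.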

[3] = FACS binding, PSMA-expressing C4-2 cells, pIC50 category
[4] = pKD category for PSMA SPR activity assay
[5] = pIC50 category of FACS binding, C4-2 cells
[6] = SPR, single cycle kinetic, category
[7] = FACS binding, C4-2 cells, competition with 50 nM PSM-0183, category

T2 sequence (Q04609 whole entry): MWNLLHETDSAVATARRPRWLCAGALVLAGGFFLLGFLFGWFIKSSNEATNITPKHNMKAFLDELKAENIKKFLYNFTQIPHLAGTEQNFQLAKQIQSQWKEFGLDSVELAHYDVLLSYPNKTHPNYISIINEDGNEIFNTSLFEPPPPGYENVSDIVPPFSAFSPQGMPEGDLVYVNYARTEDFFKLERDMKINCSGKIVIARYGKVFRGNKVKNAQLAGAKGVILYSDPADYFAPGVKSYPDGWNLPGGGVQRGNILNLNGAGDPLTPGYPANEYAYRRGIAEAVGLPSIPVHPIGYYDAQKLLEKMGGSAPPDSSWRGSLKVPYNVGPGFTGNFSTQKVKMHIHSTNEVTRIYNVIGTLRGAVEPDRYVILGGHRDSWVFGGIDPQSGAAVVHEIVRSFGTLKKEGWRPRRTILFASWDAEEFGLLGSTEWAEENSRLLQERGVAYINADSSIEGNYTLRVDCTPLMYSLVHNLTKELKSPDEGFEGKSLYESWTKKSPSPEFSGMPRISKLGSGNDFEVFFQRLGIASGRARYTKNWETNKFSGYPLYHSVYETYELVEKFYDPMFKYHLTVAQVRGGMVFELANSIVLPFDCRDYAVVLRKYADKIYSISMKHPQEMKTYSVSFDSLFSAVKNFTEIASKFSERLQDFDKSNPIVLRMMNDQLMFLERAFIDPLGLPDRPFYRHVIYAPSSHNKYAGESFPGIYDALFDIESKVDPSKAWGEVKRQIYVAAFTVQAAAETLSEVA
T1 sequence (Q04609 44-750 limits assumed): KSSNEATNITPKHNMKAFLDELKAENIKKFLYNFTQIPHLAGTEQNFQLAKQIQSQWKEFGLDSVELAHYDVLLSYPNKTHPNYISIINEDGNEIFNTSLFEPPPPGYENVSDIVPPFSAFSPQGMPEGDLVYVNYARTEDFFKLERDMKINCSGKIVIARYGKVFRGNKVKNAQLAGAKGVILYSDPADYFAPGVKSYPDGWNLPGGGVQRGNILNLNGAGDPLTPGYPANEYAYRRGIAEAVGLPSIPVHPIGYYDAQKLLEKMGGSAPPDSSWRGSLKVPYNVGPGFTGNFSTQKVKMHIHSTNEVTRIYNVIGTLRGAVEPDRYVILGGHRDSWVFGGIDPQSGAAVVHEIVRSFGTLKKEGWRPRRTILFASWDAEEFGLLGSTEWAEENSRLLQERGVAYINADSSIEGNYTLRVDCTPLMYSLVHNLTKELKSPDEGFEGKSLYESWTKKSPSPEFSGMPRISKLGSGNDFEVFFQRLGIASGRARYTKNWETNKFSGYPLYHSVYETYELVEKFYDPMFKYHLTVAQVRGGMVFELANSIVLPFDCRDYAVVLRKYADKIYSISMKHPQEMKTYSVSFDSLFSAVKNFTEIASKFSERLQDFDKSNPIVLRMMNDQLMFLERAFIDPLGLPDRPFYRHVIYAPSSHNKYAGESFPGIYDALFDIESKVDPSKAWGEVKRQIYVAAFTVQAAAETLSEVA

Structure (SMILES): CCCC[C@H](NC(=O)[C@@H]1CSSC[C@H](NC(=O)[C@H](Cc2ccccc2)NC(=O)[C@H](C)NC(=O)[C@H](C)NC(C)=O)C(=O)N[C@@H](CCCCN)C(=O)N[C@@H](CCCNC(=N)N)C(=O)N[C@@H](C)C(=O)N[C@@H](CC(N)=O)C(=O)N1)C(=O)N[C@H](C(=O)N[C@@H](CC(=O)O)C(N)=O)[C@@H](C)O [PSM-0491, Ac-Ala-Ala-Phe-[Cys-Lys-Arg-Ala-Asn-Cys]-Nle-Thr-Asp-NH2] (Ac-AAFCKRANC[Nle]TD-NH2; disulfide 4-9)
- Kd [1, 4]: 0.126 to 0.501 µM
- IC50 [2, 5]: 0.2 to 1.26 µM

Structure (SMILES): CC(=O)N[C@H](C(=O)NC(C)(C)C(=O)N[C@@H](Cc1ccccc1)C(=O)N[C@H]1CSSC[C@@H](C(=O)N[C@H](C(=O)N[C@H](C(=O)N[C@@H](CC(=O)O)C(N)=O)[C@@H](C)O)C(C)(C)C)NC(=O)[C@H](CC(N)=O)NC(=O)[C@H](C)NC(=O)[C@H](CCC(=O)O)NC(=O)[C@H](CCCCN)NC1=O)[C@@H](C)O [PSM-0363, Ac-Thr-Aib-Phe-[Cys-Lys-Glu-Ala-Asn-Cys]-Tle-Thr-Asp-NH2] (Ac-T[Aib]FCKEANC[Tle]TD-NH2; disulfide 4-9)
- Kd ([1]; PSMA SPR assay, pKD category): < 0.0126 µM
- IC50 [2, 3]: 0.2 to 1.26 µM

Structure (SMILES): CCCCCC(=O)N[C@H](C(=O)N[C@@H](C)C(=O)N[C@@H](Cc1ccccc1)C(=O)N[C@H]1CSSC[C@@H](C(=O)N[C@@H](CC(C)C)C(=O)N[C@H](C(=O)N[C@@H](CC(=O)O)C(=O)NCCCOCCOCCOCCCNC(=O)CCC(=O)N[C@H](CCCCNC(=O)CN2CCN(CC(=O)O)CCN(CC(=O)O)CCN(CC(=O)O)CC2)C(N)=O)[C@@H](C)O)NC(=O)[C@H](CC(N)=O)NC(=O)[C@H](C)NC(=O)[C@H](CCCNC(=N)N)NC(=O)[C@H](CCCCN)NC1=O)[C@@H](C)O [PSM-0405, Hex-Thr-Ala-Phe-[Cys-Lys-Arg-Ala-Asn-Cys]-Leu-Thr-Asp-Ttds-lys(DOTA)-NH2] (Hexanoyl-TAFCKRANCLTD-{TtdsdLys(DOTA)NH2}; disulfide 4-9)
- Kd [1, 4]: 0.0126 to 0.126 µM
- IC50 [2, 5]: < 0.2 µM

Continued, values first:

- Kd ([1]; PSMA SPR assay, pKD category): 0.0126 to 0.126 µM
- IC50 [2, 3]: < 0.2 µM
Structure (SMILES): CC(=O)N[C@H](C(=O)NC(C)(C)C(=O)N[C@@H](Cc1cccc(Cl)c1)C(=O)N[C@H]1CSSC[C@@H](C(=O)N[C@H](C(=O)N[C@H](C(N)=O)[C@@H](C)O)C(C)(C)C)NC(=O)[C@H](CC(N)=O)NC(=O)[C@H](CCCCNC(=O)COCCOCCNC(=O)CN2CCN(CC(=O)O)CCN(CC(=O)O)CCN(CC(=O)O)CC2)NC(=O)[C@H](CCCNC(N)=O)NC(=O)[C@H](CCCCN)NC1=O)[C@@H](C)O [PSM-0284, Ac-Thr-Aib-Mcf-[Cys-Lys-Cit-Lys(DOTA-020c)-Asn-Cys]-Tle-Thr-NH2] (Ac-T[Aib][Phe(3-Cl)]CK[Cit]K([AEEA-DOTA])NC[Tle]T-NH2; disulfide 4-9)

- Kd [1, 4]: < 0.0126 µM
- IC50 [2, 5]: < 0.2 µM
Structure (SMILES): CC(=O)N[C@H](C(=O)NC(C)(C)C(=O)N[C@@H](Cc1ccccc1)C(=O)N[C@H]1CSSC[C@@H](C(=O)N[C@H](C(=O)N[C@H](C(N)=O)[C@@H](C)O)C(C)(C)C)NC(=O)[C@H](CC(=O)O)NC(=O)C(C)(C)NC(=O)[C@H](CCCNC(=N)N)NC(=O)[C@H](CCCCN)NC1=O)[C@@H](C)O [PSM-0478, Ac-Thr-Aib-Phe-[Cys-Lys-Arg-Aib-Asp-Cys]-Tle-Thr-NH2] (Ac-T[Aib]FCKR[Aib]DC[Tle]T-NH2; disulfide 4-9)

- Kd [1, 6]: < 0.0126 µM
- IC50 [2, 7]: < 0.2 µM
Structure (SMILES): CC(=O)N[C@H](C(=O)NC(C)(C)C(=O)N[C@@H](Cc1ccccc1)C(=O)N[C@H]1CSSC[C@@H](C(=O)N[C@H](C(N)=O)C(C)(C)C)NC(=O)[C@H](CC(N)=O)NC(=O)C(C)(C)NC(=O)[C@H](CCCNC(=N)N)NC(=O)[C@H](CCCCN)NC1=O)[C@@H](C)O [PSM-0230, Ac-Thr-Aib-Phe-[Cys-Lys-Arg-Aib-Asn-Cys]-Tle-NH2] (Ac-T[Aib]FCKR[Aib]NC[Tle]-NH2; disulfide 4-9)

- Kd [1, 6]: 0.0126 to 0.126 µM
- IC50 [2, 7]: < 0.2 µM
Structure (SMILES): CC(C)C[C@H](NC(=O)CC1CCN(C(=O)CN2CCN(CC(=O)O)CCN(CC(=O)O)CCN(CC(=O)O)CC2)CC1)C(=O)NC(C)(C)C(=O)N[C@@H](Cc1ccccc1)C(=O)N[C@H]1CSSC[C@@H](C(=O)N[C@H](C(=O)N[C@H](C(N)=O)[C@@H](C)O)C(C)(C)C)NC(=O)[C@H](CC(N)=O)NC(=O)C(C)(C)NC(=O)[C@H](CCCNC(=N)N)NC(=O)[C@H](CCCCN)NC1=O [PSM-0220, DOTA-Cmp-Leu-Aib-Phe-[Cys-Lys-Arg-Aib-Asn-Cys]-Tle-Thr-NH2] ({DOTA}-[X1]L[Aib]FCKR[Aib]NC[Tle]T-NH2; disulfide 5-10)
